We go through 6 molecules from ChEMBL document CHEMBL4619749, “Triazoxins: Novel nucleosides with anti-Giardia activity” (Bioorg Med Chem Lett, 2020).

Assay type in all cases: functional, organism-based
Details in all cases: Giardia duodenalis

The test system of assay [1] is Giardia intestinalis. The assay is described as follows: Antimicrobial activity against Giardia lamblia assemblage A WB C6 ATCC 30957 trophozoites.
In assay [2] the test system is Giardia intestinalis. Nature of the assay: Antimicrobial activity against Giardia lamblia assemblage A WB C6 ATCC 30957 cyst.
For assay [3], the system named is Giardia intestinalis. The assay is described as follows: Antimicrobial activity against Giardia lamblia GS/M assessed as reduction in trophozoites formation.

One may read the IC50 as the concentration that inhibits the measured activity by half. Consider `O=c1ccn([C@@H]2O[C@H](Cn3cc(C#CC#Cc4cn(C[C@H]5O[C@@H](n6ccc(=O)[nH]c6=O)[C@H](O)[C@@H]5O)nn4)nn3)[C@@H](O)[C@H]2O)c(=O)[nH]1`, for which the figures for the IC50 in the assay on Giardia intestinalis [1] and in the assay with Giardia intestinalis [2] were 47 µM and more than 50 µM, respectively.
As for `COc1ccc(Cn2cc(C#Cc3cn(C[C@H]4O[C@@H](n5ccc(=O)n(Cc6ccc(OC)cc6)c5=O)[C@@H]5OC(C)(C)O[C@@H]54)nn3)c(=O)n(Cc3ccc(OC)cc3)c2=O)cc1`, the IC50 with Giardia intestinalis [1] amounted to 36 µM; in the assay on Giardia intestinalis [2], 5 µM.
For `CC1(C)O[C@@H]2[C@H](O1)[C@@H](Cn1cc(CCCCc3cn(C[C@H]4O[C@@H](n5ccc(=O)[nH]c5=O)[C@@H]5OC(C)(C)O[C@@H]54)nn3)nn1)O[C@H]2n1ccc(=O)[nH]c1=O`, in that order: 47 µM and more than 50 µM.
For `O=c1ccn([C@@H]2O[C@H](Cn3cc(C#Cc4c[nH]c(=O)[nH]c4=O)nn3)[C@@H](O)[C@H]2O)c(=O)[nH]1`, the IC50 with Giardia intestinalis [1] is 36 µM; with Giardia intestinalis [2], 20 µM.
The matching figures for `CC1(C)O[C@@H]2[C@H](O1)[C@@H](Cn1cc(C#Cc3c[nH]c(=O)[nH]c3=O)nn1)O[C@H]2n1ccc(=O)[nH]c1=O`: 5 µM and more than 50 µM.
One may read the EC50 as the midpoint of the concentration-response curve. Consider `Cc1ncc([N+](=O)[O-])n1CCO` [METRONIDAZOLE], for which the EC50 with Giardia intestinalis [3] worked out at 5.2 µM.
